The text below walks through data of patent US9290468B2, “Benzoheterocyclic compounds and use thereof” (SHANGHAI KECHOW PHARMA, INC., priority 2012, dated 2016).

In one assay the test system is HT29 cells. Briefly: Cell growth inhibition assay (MTT), HT29 cells. The conditions noted are these: Homo sapiens, HT-29, 72 h. The format is cell-based.
The subject of a further assay is A375 cells. Briefly: Cell growth inhibition assay (MTT), A375 cells. The format is cell-based. The note with it: Homo sapiens, A-375, 72 h.
In the next assay the test system is TNF-α. Briefly: Inhibition of TNF-α expression, LPS-stimulated spleen cells, ELISA. The note with it: Mus musculus, 24 h, read-out: Inhibition of TNF-α expression. On the technique in general: An ELISA detects its analyte on a solid surface through an enzyme-linked reagent.
A further assay deals with Interleukin-4 (IL-4). Briefly: Inhibition of Interleukin-4 (IL-4), GFP+ of CD4+ spleen cells by flow cytometry. The note with it: Mus musculus, 48 h, read-out: IL-4 inhibition. Background: Flow cytometry measures light scatter and fluorescence of single cells or particles in a stream.
Another assay concerns COLO 205 tumor xenograft. Nature of the assay: In vivo anti-tumor efficacy in COLO205 tumor xenograft model.
For assay [1], the system named is HT29 human colon cancer cells xenograft. Briefly: In vivo anti-tumor efficacy in HT29 tumor xenograft model. Details: species or system BALB/c nude mice. The note with it: 20 mg/kg, oral gavage once daily, after 16 days of treatment, HT29 xenograft in nude mice.
Method: Female BALB/c nude mice of 5-6 week old were used for all the in vivo efficacy studies. Mice were injected with HT29 human colon cancer cells at 5×10^6 cells per 100 μL SFM into right flank. Tumor volumes were monitored by caliper measurement using the formula: tumor volume (mm^3)=(w^2×l)/2, where w=width and c=length in mm of the tumor. When the tumor volumes reached 150˜300 mm^3, mice were randomized to treatment groups (5˜10 mice per group) to receive compounds (20 mg/kg doses) or vehicle by oral gavage once daily for 16 days. The tumor volumes and body weight were measured every 2-3 days for data analysis. Tumor growth inhibition (TGI) and body weight changes were calculated compared to the vehicle treated groups.
Setting [2] is: 10 mg/kg QD by gavage x 18 days.

For orientation: IC50 means the midpoint of a concentration-inhibition curve. A higher IC50 goes with weaker potency in that assay. For orientation: inhibition means the percentage by which the read-out fell short of the control.

Method for A375 cells: (§1) When the HT29 cells reach their exponential phase of growth, 4×10^3 cells/well were plated into 96-well plates, the edge of plates were filled with sterility PBS, at the same time, filled three holds only with medium as blank group. • 2. The plates were cultured in a humidified 5% CO2 incubator at 37° C. for 24 h, and allowed to proliferate for reaching their exponential phase of growth. • 3. Samples were dissolved in DMSO (dimethyl sulfoxide), the concentration of Samples is 10 mmol/L, 1 mmol/L, 100 μmol/L, 10 μmol/L, 1 μmol/L, 0.1 μmol/L, and further diluted with cell culture medium. The final does concentration were 10 μmol/L, 1 μmol/L, 100 nmol/L, 10 nmol/L, 1 nmol/L, 0.1 nmol/L, 0 nmol/L (the control group). The final DMSO concentration used was 1‰ of total volume of medium in all treatments, including the control group. • Blank: medium • Control: the same dose of DMSO with experiment. Group, the DMSO was diluted with cell perfect culture medium. • Experiment: the cells were treated with the concentration of 10 μmol/L, 1 μmol/L, 100 nmol/L, 10 nmol/L, 1 nmol/L, 0.1 nmol/L. • 4. The plates were cultured in a humidified 5% CO2 incubator at 37° C. for 72 h. 20 μL of 3-(4,5-dimethylthiazol-2-yl)-2,5-diphenyltetrazolium bromide (MTT) reagent (5 mg/mL) in phosphate buffered serum (PBS) was added to each well. • 5. The plates were cultured in a humidified 5% CO2 incubator at 37° C. for 4 h. Subsequently, the solution was aspirated and 150 uL dimethyl sulfoxide was added to release the formed formazan crystals from the living cells mitochondria into the solution. • 6. After moderated shaking for 3 min, absorbance was measured at 490 nm using microplate reader. Methods 2 (A375) • 1. When the A375 cells reach their exponential phase of growth, 5×10^3 cells/well were plated into 96-well plates, the edge of plates were filled with sterility PBS, at the same time, filled three holds only with medium as blank group. • 2. The plates were cultured in a humidified 5% CO2 incubator at 37° C. for 24 h. Allowed to proliferate for reaching their exponential phase of growth. • 3. Samples were dissolved in DMSO (Dimethyl Sulfoxide), the concentration of Samples is 10 mmol/L, 1 mmol/L, 100 μmol/L, 10 μmol/L, 1 μmol/L, 0.1 μmol/L, and further diluted with cell culture medium. The final does concentration were 10 μmol/L, 1 μmol/L, 100 nmol/L, 10 nmol/L, 1 nmol/L, 0.1 nmol/L, 0 nmol/L (the control group). The final DMSO concentration used was 1‰ of total volume of medium in all treatments, including the control group. • Blank: medium • Control: the same dose of DMSO with experiment group, the DMSO was diluted with cell perfect culture medium • Experiment: the cells were treated with the concentration of 10 μmol/L, 1 μmol/L, 100 nmol/L, 10 nmol/L, 1 nmol/L, 0.1 nmol/L • 4. The plates were cultured in a humidified 5% CO2 incubator at 37° C. for 72 h. 20 μL of 3-(4,5-dimethylthiazol-2-yl)-2,5-diphenyltetrazolium bromide (MTT) reagent (5 mg/mL) in phosphate buffered serum (PBS) was added to each well. • 5. The plates were cultured in a humidified 5% CO2 incubator at 37° C. for 4 h. Subsequently, the solution was aspirated and 150 uL dimethyl sulfoxide was added to release the formed formazan crystals from the living cells mitochondria into the solution. • 6. After moderated shaking for 3 min, absorbance was measured at 490 nm using microplate reader.
Method for HT29 cells: as §1
Method for Interleukin-4 (IL-4): Take spleens of BALB/c gene reported mice, culture in RPMI1640 medium (HyClone). • 2. Spleen will be ground into single cell suspension, add red blood cell lysis buffer (sigma) to suspension, for cracking the red blood cells. • 3. […] Dissolved compounds with DMSO and diluted with RPMI1640 medium containing 10% serum, diluted to a final concentration of 200 nM. • 5. […] After mixing, cells were added to 96 well plates, every hole is 100 μL. […] Each compound and control is three-hole wells, cultured at 37° C. for 48 h. • 6. After 48 h, the plates removed from the incubator and each well was collected in the flow tube (BD). • 7. Added cells to ice pre-cooling of PBS (phosphate buffer solution) solution to wash, and in 100 μL of PBS, join the fluorescent antibody CD4 0.5 μL, put in ice 15 min avoid light. • 8. After dyeing wash antibodies with the ice pre-cooling PBS solution. And prepare for flow cytometric detection. • 9. Using flow cytometry (BD FACS calibur) select the CD4+ cell populations, and detect GFP+ cells accounted for the percentage of CD4+ cells, to determine the impact of compounds on IL-4. • 10.
(§2) Control was DMSO and its concentration was same as the final concentration of test compounds.
Method for TNF-α: Take spleens of BALB/c gene reported mice, cultured in RPMI1640 medium (HyClone). Spleen was ground into single cell suspension, added red blood cell lysis buffer (sigma) to suspension, for cracking the red blood cells • 2. […] Dissolved compounds with DMSO and diluted with RPMI1640 medium containing 10% serum, diluted to a final concentration of 200 nM. • 4. Cells were added to 96 well plates, every hole was 100 μL. […] Each compound and control is three-hole wells. • 5. Cultured at 37° C. for 24 h. • 6. […] Using ELISA (enzyme-linked immunosorbent assay) technique for the determination of the amount of TNF-α in the 24 hours.
as §2

Regarding `O=S(=O)(Nc1cc2snnc2c(F)c1Nc1ccc(Br)cc1Cl)C1CC1` [Compound 23, N-(5-((4-bromo-2-chlorophenyl)amino)-4-fluorobenzo[d][1,2,3]thiadiazol-6-yl)cyclopropanesulfonamide], the half-maximal inhibitory concentration (IC50) in the assay on HT29 cells amounted to 3640 nM; in the assay with A375 cells, 562 nM.

As to `O=S(=O)(Nc1cc2ocnc2c(F)c1Nc1ccc(I)cc1F)C1(CC(O)CO)CC1` (centres unmarked) [Compound 6, 1-(2,3-dihydroxypropyl)-N-(4-fluoro-5-((2-fluoro-4-iodophenyl)amino)benzo[d]oxazol-6-yl)cyclopropane-1-sulfonamide], the half-maximal inhibitory concentration (IC50) in the assay with HT29 cells is 78.3 nM; in the assay with A375 cells it was 103 nM.

For `O=C(NOCCO)c1cc2snnc2c(F)c1Nc1ccc(Br)cc1F` [Compound 43, 5-((4-bromo-2-fluorophenyl)amino)-4-fluoro-N-(2-hydroxyethoxy)benzo[d][1,2,3]thiadiazole-6-carboxamide], the results for the inhibition at 0.1 µM in the assay with TNF-α and in the assay on Interleukin-4 (IL-4) were at most 40% and at most 50%, respectively.

Take `O=C(NOCCO)c1cc2snnc2c(F)c1Nc1ccc(I)cc1F` [Compound 17, 4-fluoro-5-((2-fluoro-4-iodophenyl)amino)-N-(2-hydroxyethoxy)benzo[d][1,2,3]thiadiazole-6-carboxamide]: the figures for the IC50 in the assay with HT29 cells and in the assay with A375 cells were 1 nM and 0.24 nM, respectively. The “Tumor growth inhibition vs vehicle control group” value in the assay on COLO 205 tumor xenograft (5 mg/kg QD by gavage x 18 days) came out at 95.35%. Further, the “Tumor growth inhibition (TGI)” value in assay [1] is 88.75%. Besides, the results for the inhibition at 0.1 µM in the assay on TNF-α and in the assay with Interleukin-4 (IL-4) were at most 40% and at most 50%, respectively.

As to `O=C(NOCC(O)CO)c1cc2ocnc2c(F)c1Nc1ccc(Br)cc1Cl` (centres unmarked) [Compound 4, 5-((4-bromo-2-chlorophenyl)amino)-N-(2,3-dihydroxypropoxy)-4-fluorobenzo[d]oxazole-6-carboxamide], the IC50 in the assay with HT29 cells turned out to be 138 nM; in the assay on A375 cells, 97.5 nM.

For the compound `O=C(NOCC(O)CO)c1cc2snnc2c(F)c1Nc1ccc(I)cc1F` (centres unmarked) [Compound 18, N-(2,3-dihydroxypropoxy)-4-fluoro-5-((2-fluoro-4-iodophenyl)amino)benzo[d][1,2,3]thiadiazole-6-carboxamide], the 50% inhibitory concentration (IC50) with HT29 cells was 66.4 nM; with A375 cells, 16.8 nM.

In the case of `O=C(NOCC(O)CO)c1cc2scnc2c(F)c1Nc1ccc(I)cc1F` (centres unmarked) [Compound 10, N-(2,3-dihydroxypropoxy)-4-fluoro-5-((2-fluoro-4-iodophenyl)amino)benzo[d]thiazole-6-carboxamide], the figures for the IC50 in the assay with HT29 cells and in the assay on A375 cells were 18.5 nM and 11.2 nM, respectively.

On to `O=S(=O)(Nc1cc2snnc2c(F)c1Nc1ccc(I)cc1F)C1CC1` [Compound 21, N-(4-fluoro-5-((2-fluoro-4-iodophenyl)amino)benzo[d][1,2,3]thiadiazol-6-yl)cyclopropanesulfonamide], for which the concentration for half-maximal inhibition (IC50) in the assay on HT29 cells turned out to be 1080 nM; in the assay with A375 cells, 1770 nM.

Regarding `O=S(=O)(Nc1cc2scnc2c(F)c1Nc1ccc(Br)cc1Cl)C1CC1` [Compound 15, N-(5-((4-bromo-2-chlorophenyl)amino)-4-fluorobenzo[d]thiazol-6-yl)cyclopropanesulfonamide], the IC50 in the assay with HT29 cells stood at 184 nM; in the assay on A375 cells, 99.8 nM.

As to `O=S(=O)(Nc1cc2scnc2c(F)c1Nc1ccc(I)cc1F)C1CC1` [Compound 13, N-(4-fluoro-5-((2-fluoro-4-iodophenyl)amino)benzo[d]thiazol-6-yl)cyclopropanesulfonamide], the IC50 was found to be 98.3 nM with HT29 cells and 207 nM with A375 cells.

As for `Cn1cnc2c(F)c(Nc3ccc(Br)cc3Cl)c(C(=O)NOCCO)cc21` [AZD6244, reference compound], the “Tumor growth inhibition (TGI)” value in assay [1] is 48.3%.

In the case of `O=C(NOCCO)c1cc2scnc2c(F)c1Nc1ccc(Br)cc1F` [Compound 34, 4-fluoro-5-((2-fluoro-4-bromophenyl)amino)-N-(2-hydroxyethoxy)benzo[d]thiazol-6-carboxamide], the inhibition at 0.1 µM was at most 40% with TNF-α and at most 50% with Interleukin-4 (IL-4).

Regarding `O=S(=O)(Nc1cc2snnc2c(F)c1Nc1ccc(Br)cc1Cl)C1(CC(O)CO)CC1` (centres unmarked) [Compound 24, N-(5-((4-bromo-2-chlorophenyl)amino)-4-fluorobenzo[d][1,2,3]thiadiazol-6-yl)-1-(2,3-dihydroxypropyl)cyclopropane-1-sulfonamide], the IC50 with HT29 cells came to 4370 nM; with A375 cells, 992 nM.

Take `O=C(NOCCO)c1cc2snnc2c(F)c1Nc1ccc(Br)cc1Cl` [Compound 19, 5-((4-bromo-2-chlorophenyl)amino)-4-fluoro-N-(2-hydroxyethoxy)benzo[d][1,2,3]thiadiazole-6-carboxamide]: the IC50 with HT29 cells is 65.7 nM; in the assay on A375 cells, 49.4 nM. In addition, the “Tumor growth inhibition vs vehicle control group” value in the assay with COLO 205 tumor xenograft (setting [2]) is recorded as 86.22%. In assay [1], the “Tumor growth inhibition (TGI)” value is listed as 50.9%. Besides, the inhibition at 0.1 µM in the assay on TNF-α is at most 40%; in the assay with Interleukin-4 (IL-4), at most 50%.

Regarding `O=S(=O)(Nc1cc2ocnc2c(F)c1Nc1ccc(Br)cc1Cl)C1(CC(O)CO)CC1` (centres unmarked) [Compound 8, N-(5-((4-bromo-2-chlorophenyl)amino)-4-fluorobenzo[d]oxazol-6-yl)-1-(2,3-dihydroxypropyl)cyclopropane-1-sulfonamide], the half-maximal inhibitory concentration (IC50) with HT29 cells was 1090 nM; in the assay with A375 cells it was 738 nM.

Regarding `O=C(NOCCO)c1cc2ocnc2c(F)c1Nc1ccc(I)cc1F` [Compound 1, 4-fluoro-5-((2-fluoro-4-iodophenyl)amino)-N-(2-hydroxyethoxy)benzo[d]oxazole-6-carboxamide], the values for the concentration for half-maximal inhibition (IC50) in the assay with HT29 cells and in the assay with A375 cells were 2.3 nM and 0.85 nM, respectively. Moreover, the “Tumor growth inhibition vs vehicle control group” value with COLO 205 tumor xenograft (setting [2]) was 91.22%. Also, the “Tumor growth inhibition (TGI)” value in assay [1] was determined as 55.1%. Moreover, the inhibition at 0.1 µM in the assay on TNF-α was at most 40%; in the assay on Interleukin-4 (IL-4), at most 50%.

On to `O=C(NOCCO)c1cc2ocnc2c(F)c1Nc1ccc(Br)cc1F` [Compound 25, 4-fluoro-5-((2-fluoro-4-bromophenyl)amino)-N-(2-hydroxyethoxy)benzo[d]oxazole-6-carboxamide], for which the inhibition at 0.1 µM in the assay with TNF-α was at most 40%; in the assay on Interleukin-4 (IL-4), at most 50%.

Turning to `O=C(NOCC(O)CO)c1cc2snnc2c(F)c1Nc1ccc(Br)cc1Cl` (centres unmarked) [Compound 20, 5-((4-bromo-2-chlorophenyl)amino)-N-(2,3-dihydroxypropoxy)-4-fluorobenzo[d][1,2,3]thiadiazole-6-carboxamide], the half-maximal inhibitory concentration (IC50) came to 687 nM in the assay on HT29 cells and 97.3 nM in the assay on A375 cells.

Consider `Cn1cnc2c(F)c(Nc3ccc(Br)cc3Cl)c(C(=O)NOCCO)cc21` [Reference compound 1, reference compound], for which the “Tumor growth inhibition vs vehicle control group” value in the assay with COLO 205 tumor xenograft (setting [2]) was found to be 72.80%.

In the case of `O=C(NOCCO)c1cc2scnc2c(F)c1Nc1ccc(Br)cc1Cl` [Compound 11, 5-((4-bromo-2-chlorophenyl)amino)-4-fluoro-N-(2-hydroxyethoxy)benzo[d]thiazole-6-carboxamide], the IC50 came to 51.2 nM with HT29 cells and 61.4 nM with A375 cells. In the assay on COLO 205 tumor xenograft (setting [2]), the “Tumor growth inhibition vs vehicle control group” value worked out at 82.14%. The “Tumor growth inhibition (TGI)” value in assay [1] is recorded as 68.51%. Besides, the inhibition at 0.1 µM is at most 40% in the assay with TNF-α and at most 50% in the assay with Interleukin-4 (IL-4).

As to `O=S(=O)(Nc1cc2snnc2c(F)c1Nc1ccc(I)cc1F)C1(CC(O)CO)CC1` (centres unmarked) [Compound 22, 1-(2,3-dihydroxypropyl)-N-(4-fluoro-5-((2-fluoro-4-iodophenyl)amino)benzo[d][1,2,3]thiadiazol-6-yl)cyclopropane-1-sulfonamide], the IC50 with HT29 cells came to 2620 nM; with A375 cells, 1160 nM.

Regarding `O=S(=O)(Nc1cc2scnc2c(F)c1Nc1ccc(I)cc1F)C1(CC(O)CO)CC1` (centres unmarked) [Compound 14, 1-(2,3-dihydroxypropyl)-N-(4-fluoro-5-((2-fluoro-4-iodophenyl)amino)benzo[d]thiazol-6-yl)cyclopropane-1-sulfonamide], the figures for the IC50 with HT29 cells and in the assay on A375 cells were 201 nM and 119 nM, respectively.

As to `O=C(NOCC(O)CO)c1cc2scnc2c(F)c1Nc1ccc(Br)cc1Cl` (centres unmarked) [Compound 12, N-(2,3-dihydroxypropoxy)-4-fluoro-5-((4-bromo-2-chlorophenyl)amino)benzo[d]thiazole-6-carboxamide], the half-maximal inhibitory concentration (IC50) stood at 738 nM with HT29 cells and 174 nM in the assay with A375 cells.

As for `O=S(=O)(Nc1cc2ocnc2c(F)c1Nc1ccc(Br)cc1Cl)C1CC1` [Compound 7, N-(5-((4-bromo-2-chlorophenyl)amino)-4-fluorobenzo[d]oxazol-6-yl)cyclopropanesulfonamide], the IC50 in the assay with HT29 cells worked out at 283 nM; in the assay with A375 cells, 239 nM.

Regarding `O=C(NOCC(O)CO)c1cc2ocnc2c(F)c1Nc1ccc(I)cc1F` (centres unmarked) [Compound 2, N-(2,3-dihydroxypropoxy)-4-fluoro-5-((2-fluoro-4-iodophenyl)amino)benzo[d]oxazole-6-carboxamide], the half-maximal inhibitory concentration (IC50) in the assay with HT29 cells was 8.1 nM; in the assay on A375 cells it was 4.6 nM.

On to `O=S(=O)(Nc1cc2scnc2c(F)c1Nc1ccc(Br)cc1Cl)C1(CC(O)CO)CC1` (centres unmarked) [Compound 16, N-(5-((4-bromo-2-chlorophenyl)amino)-4-fluorobenzo[d]thiazol-6-yl)-1-(2,3-dihydroxypropyl)cyclopropane-1-sulfonamide], for which the values for the IC50 in the assay on HT29 cells and with A375 cells were 1310 nM and 151 nM, respectively.

`O=S(=O)(Nc1cc2ocnc2c(F)c1Nc1ccc(I)cc1F)C1CC1` [Compound 5, N-(4-fluoro-5-((2-fluoro-4-iodophenyl)amino)benzo[d]oxazol-6-yl)cyclopropanesulfonamide]: the IC50 in the assay with HT29 cells is 81.6 nM; in the assay with A375 cells, 125 nM.
